Results: patent US4732902A, “Pyrroloisoquinolinyl-dimethyloxoalkyl alkonoates and their use as antipsychotic agents” (Hoffmann-La Roche Inc., priority 1986, dated 1988)
Several values for one entry are separate records, joined by “and”; a condition that tells them apart may be missing. Identical values can stand only once.

Experiments:
[1] = Esterase cleavage of prodrug esters by incubation with rat liver homogenate; assay type: in vitro ADME; details: liver 9000xg supernatant, rat liver 9,000×g supernatant, pH 7.4, 37° C., 0.5 μmole substrate, read-out: Formation of IIa (piquindone) as % of incubated test compound I in 1 hr.
Procedure: In this test, acetone solutions of the test compounds (0.5 μmole/50 μL) were added to an incubation medium consisting of 2.7 ml 0.1M potassium hydrogenphosphate (pH 7.4) and 0.3 ml rat liver 9,000×g supernatant. The media were then incubated for 1 hour at 37° C. Controls consisted of a sample containing the complete medium and substrate which was not incubated, a sample containing only phosphate buffer and substrate, and a sample containing the complete medium but lacking substrate.
The incubation media were fractionated with a Waters C-18 SEP-PAK. Prior to sample application, the SEP-PAK was washed with 10 ml of methanol and 20 ml of water. After sample application, the SEP-Pak was washed with 10 ml of water and 3 ml of methanol. The amount of the liberated compound of formula II was measured by high pressure liquid chromatography on a 30-cm Waters μ-Bondapak C-18 column, equilibrated with 70:30:1 methanol:water:ammonium hydroxide.

[2] = target: T1, dopamine receptors (Rattus norvegicus, UniProt P61169); assay: 3H-spiroperidol binding test in rat striatal brain homogenates; details: 0.2 nanomolar 3H-spiroperidol, 20 min incubation, no esterases, read-out: 3H-Spiroperidol binding in vitro, IC50
T1 construct: rat striatal brain homogenates; from tissue; host or cells: rat striatum (brain homogenate)
Procedure: Spiroperidol binding test. In the absence of esterases which trigger the release of the compound of formula II from the compound of formula I, there is only weak activity in the 3H-spiroperiodol binding assay, an in vitro test which measures binding to dopamine receptors. In this test, rat striatal brain homogenates were incubated for 20 min. in the presence of 0.2 nanomolar ^3 H-spiroperidol and varying concentrations of test compounds. The incubations were terminated by rapid filtration through Whatman GF/B filters. followed by 2×5 mL washes with ice-cold assay buffer (50 mM tribase-HCl pH 7.7 which contains fixed concentrations of 0.1% ascorbic acid, 120 mM sodium chloride, 5 mM potassium chloride, 2 mM calcium chloride, and 1 mM magnesium chloride).

[3] = tested on: male SPF rats (conditioned avoidance response); assay: Pole climb avoidance test; assay type: in vivo; details: rat; for ED50 / ED (90-100): im, intramuscular in sesame oil; for ED50: at peak of action, read-out: Blockade of Avoidance Response (BAR), acute ED50; for ED (90-100): dose giving 90-100% block within 24 hours, read-out: Blockade of Avoidance Response (BAR), acute 100% BAR dose
Text: In vivo activity. Pole Climb Avoidance Test. In the pole climb test, antipsychotics characteristically disrupt an acquired discrete conditioned avoidance behavior in doses well below those which suppress the response to unconditioned stimuli (escape). The principle of the test procedure was described by Courvoisier S. et al. (Arch. Int. Pharmacodyn 92, 305, 1954), Cook, L. et al. (Ann. N.Y. Acad. Sci. 66, 740-752, 1957) and Pfeiffer, C. et al. (Ann, N.Y. Acad. Sci. 66, 753-764, 1957).
The animals were male SPF rats (stock Fuellinsdorf Albino, outbred) weighing 200-220 g at the end of a discrete conditioned avoidance training.
The test apparatus was a sound-attenuated plexiglass chamber (41×30×30 cm). The floor was a grid consisting of 27 stainless steel rods, to which a scrambled current of 0,8 mA could be delivered by means of a stimulator. The safety area was a vertical pole (4,3 cm diameter, 24 cm long) attached to the top of the chamber. The free lower end of the pole was 6 cm above the grid floor. A buzzer was mounted within the testing enclosure.
The rats were placed in the plexiglass chamber and trained to jump to the pole during a buzzer stimulus (conditioned stimulus CS) lasting 10 sec, in order to avoid an immediately following electrical footshock (unconditioned stimulus US) of 30 sec duration delivered to the grid floor in addition to the CS. If the rat climbed to the pole during the CS or CS plus US, the stimuli (buzzer, footshock) were immediately terminated.
The pole climb response occurring during the CS period is called an avoidance response or conditioned response (CAR or CR), that occurring during exposure to CS plus US escape response of unconditioned response (UER or UR). Following one training trial (exposure to one CS and US respectively) the rats were returned to their home cage. After 15-17 trials rats were jumping during the buzzer stimulation only and were ready for drug testing.
A group of 10 trained rats was used per dose (graded doses, geometric progression: factor 3.16). The test compounds were administered intramuscularly in a sesame oil solution containing 25 mg of compounds per ml of solution.
Dose-effect curves of block of conditioned response (BCR) were constructed by plotting the log dose against the effect (in percent BCR) at the peak of action. From these curves the ED50 for BCR were graphically determined. The potency of a drug for suppressing CR was expressed by the ED50 for BCR. For the evaluation of the long-term effect, a drug dose eliciting a non-supra-maximal 90-100% block of avoidance response within 24 hours was followed up at 24 hour intervals.

[4] = single i.m. 100% BAR dose in sesame oil

T1 sequence (P61169 whole entry): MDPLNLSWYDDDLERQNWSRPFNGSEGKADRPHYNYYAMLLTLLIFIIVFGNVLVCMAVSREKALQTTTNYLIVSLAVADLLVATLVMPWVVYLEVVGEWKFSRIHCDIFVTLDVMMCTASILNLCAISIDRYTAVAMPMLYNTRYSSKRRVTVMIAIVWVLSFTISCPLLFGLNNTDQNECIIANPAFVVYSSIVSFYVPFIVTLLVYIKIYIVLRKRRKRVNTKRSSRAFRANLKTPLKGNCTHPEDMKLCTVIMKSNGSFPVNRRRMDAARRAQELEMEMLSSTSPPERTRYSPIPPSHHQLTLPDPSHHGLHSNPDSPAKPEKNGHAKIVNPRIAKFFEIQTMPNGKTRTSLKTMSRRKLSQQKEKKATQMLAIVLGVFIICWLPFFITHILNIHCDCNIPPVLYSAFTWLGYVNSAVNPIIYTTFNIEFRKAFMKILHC

Row | SMILES | metabolised at 1 h [1] [%] | IC50 [2] | ED50 [3] [mg/kg] | ED (90-100) [3] [mg/kg] | Duration: % BAR, Day 1 [3, 4] [%] | Duration: % BAR, Day 2 [3, 4] [%] | Duration: % BAR, Day 3 ([3]; single i.m. 100% BAR dose in sesame oil, Day 3) [%] | Duration: % BAR, Day 4 ([3]; single i.m. 100% BAR dose in sesame oil, Day 4) [%] | Duration: % BAR, Day 5 ([3]; single i.m. 100% BAR dose in sesame oil, Day 5) [%] | Duration: % BAR, Day 6-13 ([3]; single i.m. 100% BAR dose in sesame oil, Days 6-13)
1 | CCCCCCCCCC(=O)OCCC(C)(C)C(=O)n1c(C)c(CC)c2c1C[C@H]1CCN(C)C[C@@H]1C2=O (relative stereo) [Ic, 2,6-Dimethyl-1-[2,2-dimethyl-4-[(1-oxodecyl)oxy]-1-oxo-butyl]-3-ethyl-1,4a,5,6,7,8,8a,9-octahydro-4a,8a-trans-4H-pyrrolo[2,3-g]isoquinolin-4-one] | 102 | 870 nM and 1000 nM | 3.6 | 10 | 100 | 100 | 100 | 90 | 80 | 50-60%
2 | CCCCCCCCCCCCCCCCCC(=O)OCCC(C)(C)C(=O)n1c(C)c(CC)c2c1C[C@H]1CCN(C)C[C@@H]1C2=O (relative stereo) [If, 2,6-Dimethyl-1-[2,2-dimethyl-4-[(1-oxooctadecyl)oxy]-1-oxobutyl]-3-ethyl-1,4a,5,6,7,8,8a,9-octahydro-4a,8a-trans-4H-pyrrolo[2,3-g]isoquinolin-4-one] | 12.1 ± 0.4 | 1000 nM | 16.2 | 30 | 100 | 10 | – | – | – | –
3 | CCCCCCCC(=O)OCCC(C)(C)C(=O)n1c(C)c(CC)c2c1C[C@H]1CCN(C)C[C@@H]1C2=O (relative stereo) [Ib, 2,6-Dimethyl-1-[2,2-dimethyl-4-[(1-oxooctyl)oxy]-1-oxobutyl]-3-ethyl-1,4a,5,6,7,8,8a,9-octahydro-4a,8a-trans-4H-pyrrolo[2,3-g]isoquinolin-4-one] | 104 ± 3.3 | 195 nM | – | – | – | – | – | – | – | –
4 | CCCCCCCCCCCCCCCCCCCC(=O)OCCC(C)(C)C(=O)n1c(C)c(CC)c2c1C[C@H]1CCN(C)C[C@@H]1C2=O (relative stereo) [Ig, 2,6-Dimethyl-1-[2,2-dimethyl-4-[(1-oxoeicosanoyl)oxy]-1-oxobutyl]-3-ethyl-1,4a,5,6,7,8,8a,9-octahydro-4a,8a-trans-4H-pyrrolo[2,3-g]isoquinolin-4-one] | 11.7 ± 0.7 | 1000 nM | 13.8 | 30 | 100 | 10 | – | – | – | –
5 | CCc1c2c(n(C(=O)C(C)(C)CCOC(C)=O)c1C)C[C@H]1CCN(C)C[C@@H]1C2=O (relative stereo) [Ia] | 88 ± 2 | 250 nM | 0.6 | 3 | 90 | 50 | – | – | – | –
6 | CCCCCCCCCCCCCCCC(=O)OCCC(C)(C)C(=O)n1c(C)c(CC)c2c1C[C@H]1CCN(C)C[C@@H]1C2=O (relative stereo) [Ie, 2,6-Dimethyl-1-[2,2-dimethyl-4-[(1-oxohexadecyl)oxy]-1-oxobutyl]-3-ethyl-1,4a,5,6,7,8,8a,9-octahydro-4a,8a-trans-4H-pyrrolo[2,3-g]isoquinolin-4-one] | 31 ± 1 | 640 nM | 17 | 30 | 100 | 10 | – | – | – | –
7 | CCCCCCCCCCCC(=O)OCCC(C)(C)C(=O)n1c(C)c(CC)c2c1C[C@H]1CCN(C)C[C@@H]1C2=O (relative stereo) [Id, 2,6-Dimethyl-1-[2,2-dimethyl-4-[(1-oxododecyl)oxy]-1-oxobutyl]-3-ethyl-1,4a,5,6,7,8,8a,9-octahydro-4a,8a-trans-4H-pyrrolo[2,3-g]isoquinolin-4-one] | 77.2 ± 0.8 | 570 nM | – | – | – | – | – | – | – | –
